Key:
CDK2 = target: T1, CDK2 (Homo sapiens, UniProt P24941); test: CDK protein degradation activity (Western blotting), CDK2; type: cell-based; conditions: MDA-MB-231 cells, 16 hours, Western blot
T1 construct: endogenous in cells; host or cells: MDA-MB-231
How it was run: (§1)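 Breast cancer line MDA-MB-231, 16 h compound treatment (100 nM–10 μM final, three doses). Immunoblot quantification of CDK2/CDK9 versus tubulin, normalized to DMSO control.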

CDK9 = target: T2, CDK9 (Homo sapiens, UniProt P50750); test: CDK protein degradation activity (Western blotting), CDK9; type: cell-based; conditions: MDA-MB-231 cells, 16 hours, Western blot
T2 construct: endogenous in cells; host or cells: MDA-MB-231
T2 sequence (P50750 whole entry): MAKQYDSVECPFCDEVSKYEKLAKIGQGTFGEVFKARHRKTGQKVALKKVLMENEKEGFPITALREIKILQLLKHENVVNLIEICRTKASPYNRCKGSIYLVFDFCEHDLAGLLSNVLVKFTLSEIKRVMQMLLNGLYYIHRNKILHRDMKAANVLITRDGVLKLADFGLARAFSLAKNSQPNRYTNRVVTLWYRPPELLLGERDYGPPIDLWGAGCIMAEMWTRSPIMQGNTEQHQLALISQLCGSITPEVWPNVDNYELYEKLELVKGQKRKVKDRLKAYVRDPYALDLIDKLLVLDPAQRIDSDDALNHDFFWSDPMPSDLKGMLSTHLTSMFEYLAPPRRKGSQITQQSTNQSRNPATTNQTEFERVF
How it was run: as §1

| Enzyme degradation CDK2 (% remaining) @ 0.1 μM (CDK2) | Enzyme degradation CDK2 (% remaining) @ 1 μM (CDK2) | Enzyme degradation CDK2 (% remaining) @ 10 μM (CDK2) | Enzyme degradation CDK9 (% remaining) @ 0.1 μM (CDK9) | Enzyme degradation CDK9 (% remaining) @ 1 μM (CDK9) | Enzyme degradation CDK9 (% remaining) @ 10 μM (CDK9) | SMILES |
| --- | --- | --- | --- | --- | --- | --- |
| 70% | 20% | 20% | 80% | 30% | 30% | O=C1CC[C@H](n2nnc3ccc(N4CCN(C5CCN(c6ccc(Nc7ncnc8c7ncn8C7CC(NC(=O)Cc8ccccc8)C7)cc6)CC5)CC4)cc3c2=O)C(=O)N1 (stereo partly drawn) [Compound 357, N-((1s,3s)-3-(6-((4-(4-(4-(3-(2,6-dioxopiperidin-3-yl)-4-oxo-3,4-dihydrobenzo[d][1,2,3]triazin-6-yl)piperazin-1-yl)piperidin-1-yl)phenyl)amino)-9H-purin-9-yl)cyclobutyl)-2-phenylacetamide] |
| 70% | 60% | 50% | 60% | 40% | 30% | Cc1cccc(C(=O)NC2CC(n3cnc4c(Nc5ccc(N6CCN(C(=O)COc7cccc8c7C(=O)N([C@H]7CCC(=O)NC7=O)C8=O)CC6)cc5)ncnc43)C2)n1 (stereo partly drawn) [Compound 85, N-((1s,3s)-3-(6-((4-(4-(2-((2-(2,6-dioxopiperidin-3-yl)-1,3-dioxoisoindolin-4-yl)oxy)acetyl)piperazin-1-yl)phenyl)amino)-9H-purin-9-yl)cyclobutyl)-6-methylpicolinamide] |
| 40% | 30% | 30% | 20% | 0% | 20% | Cc1cccc(C(=O)NC2CC(n3cnc4c(NCCC5CCN(CC6CCN(c7ccc8c(c7)C(=O)N([C@H]7CCC(=O)NC7=O)C8=O)CC6)CC5)ncnc43)C2)n1 (stereo partly drawn) [Compound 308, N-((1s,3s)-3-(6-((2-(1-((1-(2-(2,6-dioxopiperidin-3-yl)-1,3-dioxoisoindolin-5-yl)piperidin-4-yl)methyl)piperidin-4-yl)ethyl)amino)-9H-purin-9-yl)cyclobutyl)-6-methylpicolinamide] |
| 40% | 60% | 60% | 80% | 0% | 0% | O=C1CC[C@H](N2C(=O)c3ccc(OCC(=O)N4CCN(CC5CCN(c6ccc(Nc7ncnc8c7ncn8C7CC(NC(=O)c8c(Cl)cccc8Cl)C7)cc6)CC5)CC4)cc3C2=O)C(=O)N1 (stereo partly drawn) [Compound 325, 2,6-dichloro-N-((1s,3s)-3-(6-((4-(4-((4-(2-((2-(2,6-dioxopiperidin-3-yl)-1,3-dioxoisoindolin-5-yl)oxy)acetyl)piperazin-1-yl)methyl)piperidin-1-yl)phenyl)amino)-9H-purin-9-yl)cyclobutyl)benzamide] |
| 10/10/10% | 10/10/10% | 10/10/10% | 0/0/0% | 0/0/0% | 0/0/0% | N#Cc1cccc(C(=O)N[C@H]2C[C@@H](n3cnc4c(Nc5ccc(N6CCN(CC7CCN(c8ccc9nnn([C@H]%10CCC(=O)NC%10=O)c(=O)c9c8)CC7)CC6)cc5)ncnc43)C2)n1 (racemic) [Compound 418, 6-cyano-N-((1s,3s)-3-(6-((4-(4-((1-(3-(2,6-dioxopiperidin-3-yl)-4-oxo-3,4-dihydrobenzo[d][1,2,3]triazin-6-yl)piperidin-4-yl)methyl)piperazin-1-yl)phenyl)amino)-9H-purin-9-yl)cyclobutyl)picolinamide] |
| 20/20/20% | 20/20/20% | 20/20/20% | 0/0/0% | 0/0/0% | 0/0/0% | O=C1CC[C@H](N2C(=O)c3ccc(N4CC(C(=O)N5CCC(CN6CCN(c7ccc(Nc8ncnc9c8ncn9[C@H]8C[C@@H](NC(=O)c9c(Cl)cccc9Cl)C8)cc7)CC6)CC5)C4)cc3C2=O)C(=O)N1 [Compound 394, 2,6-dichloro-N-((1s,3s)-3-(6-((4-(4-((1-(1-(2-(2,6-dioxopiperidin-3-yl)-1,3-dioxoisoindolin-5-yl)azetidin-3-carbonyl)piperidin-4-yl)methyl)piperazin-1-yl)phenyl)amino)-9H-purin-9-yl)cyclobutyl)benzamide] |
| 30/30/30% | 30/30/30% | 30/30/30% | 10/10/10% | 10/10/10% | 10/10/10% | O=C1CC[C@H](N2C(=O)c3ccc(N4CC(C(=O)N5CCC(CCN6CCN(c7ccc(Nc8ncnc9c8ncn9C8CC(NC(=O)c9c(Cl)cccc9Cl)C8)cc7)CC6)CC5)C4)cc3C2=O)C(=O)N1 (stereo partly drawn) [Compound 412, 2,6-dichloro-N-((1s,3s)-3-(6-((4-(4-(2-(1-(1-(2-(2,6-dioxopiperidin-3-yl)-1,3-dioxoisoindolin-5-yl)azetidin-3-carbonyl)piperidin-4-yl)ethyl)piperazin-1-yl)phenyl)amino)-9H-purin-9-yl)cyclobutyl)benzamide] |

More lines, now with the values behind:

| SMILES | Enzyme degradation CDK2 (% remaining) @ 0.1 μM (CDK2) | Enzyme degradation CDK2 (% remaining) @ 1 μM (CDK2) | Enzyme degradation CDK2 (% remaining) @ 10 μM (CDK2) | Enzyme degradation CDK9 (% remaining) @ 0.1 μM (CDK9) | Enzyme degradation CDK9 (% remaining) @ 1 μM (CDK9) | Enzyme degradation CDK9 (% remaining) @ 10 μM (CDK9) |
| --- | --- | --- | --- | --- | --- | --- |
| O=C1CCC(N2C(=O)c3cccc(NCC(=O)N4CCC5(CC4)CC(N4CCC(c6ccc(Nc7ncnc8c7ncn8[C@H]7C[C@@H](NC(=O)Cc8ccccc8)C7)cc6)CC4)C5)c3C2=O)C(=O)N1 (stereo partly drawn) [Compound 294, N-((1s,3s)-3-(6-((4-(1-(7-((2-(2,6-dioxopiperidin-3-yl)-1,3-dioxoisoindolin-4-yl)glycyl)-7-azaspiro[3.5]nonan-2-yl)piperidin-4-yl)phenyl)amino)-9H-purin-9-yl)cyclobutyl)-2-phenylacetamide] | 10/10/10% | 10/10/10% | 10/10/10% | 0/0/0% | 0/0/0% | 0/0/0% |
| O=C1CCC(N2C(=O)c3cccc(NCC(=O)N4CCC(CN5CCC(c6ccc(Nc7ncnc8c7ncn8[C@H]7C[C@@H](NC(=O)Cc8ccccc8)C7)cc6)CC5)CC4)c3C2=O)C(=O)N1 (stereo partly drawn) [Compound 288, N-((1s,3s)-3-(6-((4-(1-((1-((2-(2,6-dioxopiperidin-3-yl)-1,3-dioxoisoindolin-4-yl)glycyl)piperidin-4-yl)methyl)piperidin-4-yl)phenyl)amino)-9H-purin-9-yl)cyclobutyl)-2-phenylacetamide] | 10% | 20% | 20% | 0/0/0% | 0/0/0% | 0/0/0% |
| O=C1CC[C@H](N2C(=O)c3cc(F)c(N4CCC5(CC4)CC(N4CCN(c6ccc(Nc7ncnc8c7ncn8[C@H]7C[C@@H](NC(=O)Cc8ccccc8)C7)cc6)CC4)C5)cc3C2=O)C(=O)N1 [Compound 244, N-((1s,3s)-3-(6-((4-(4-(7-(2-(2,6-dioxopiperidin-3-yl)-6-fluoro-1,3-dioxoisoindolin-5-yl)-7-azaspiro[3.5]nonan-2-yl)piperazin-1-yl)phenyl)amino)-9H-purin-9-yl)cyclobutyl)-2-phenylacetamide] | 70% | 50% | 40% | 60% | 0% | 0% |
| O=C1CCC(N2C(=O)c3ccc(NCC(=O)N4CCC(CN5CCC(CNc6ncnc7c6ncn7[C@H]6C[C@@H](NC(=O)c7c(Cl)cccc7Cl)C6)CC5)CC4)cc3C2=O)C(=O)N1 (stereo partly drawn) [Compound 171, 2,6-dichloro-N-((1s,3s)-3-(6-(((1-((1-((2-(2,6-dioxopiperidin-3-yl)-1,3-dioxoisoindolin-5-yl)glycyl)piperidin-4-yl)methyl)piperidin-4-yl)methyl)amino)-9H-purin-9-yl)cyclobutyl)benzamide] | 20% | 10% | 10% | 0/0/0% | 0/0/0% | 0/0/0% |
| O=C1CCC(c2ccc(OCC(=O)N3CCC4(CC3)CC(N3CCN(c5ccc(Nc6ncnc7c6ncn7[C@H]6C[C@@H](NC(=O)Cc7ccccc7)C6)cc5)CC3)C4)cc2)C(=O)N1 (stereo partly drawn) [Compound 205, N-((1s,3s)-3-(6-((4-(4-(7-(2-(4-(2,6-dioxopiperidin-3-yl)phenoxy)acetyl)-7-azaspiro[3.5]nonan-2-yl)piperazin-1-yl)phenyl)amino)-9H-purin-9-yl)cyclobutyl)-2-phenylacetamide] | 30/30/30% | 30/30/30% | 30/30/30% | 0/0/0% | 0/0/0% | 0/0/0% |

— US20260125382A1, “COMPOUNDS FOR INHIBITING OR DEGRADING CDK2 AND/OR CDK9 AND MEDICINAL USE THEREOF” (KOREA RESEARCH INSTITUTE OF CHEMICAL TECHNOLOGY, priority 2022, published 2026)
